The results in this text go back to ChEMBL document CHEMBL2385017, “Selective Inhibitors of Fibroblast Activation Protein (FAP) with a (4-Quinolinoyl)-glycyl-2-cyanopyrrolidine Scaffold” (ACS Med Chem Lett, 2013).

Data set [1] is described as follows: Kinetic solubility of the compound in PBS buffer at pH 7.4 after 2 hrs by turbidimetric method. The following applies: read-out: Kinetic_solubility. In kind it is physicochemical.
A short description of data set [2]: Inhibition of DPP9 in bovine testis using Ala-Pro-p-nitroanilide as substrate incubated for 15 mins prior to substrate addition. More on the design: species or system Bos taurus.
The target of the next data set is Dipeptidyl peptidase 4 (Homo sapiens, UniProt P27487). Also noted: species or system Plasma.
Data set [3] is described as follows: Chemical stability in PBS buffer at pH 7.4. In kind it is physicochemical.
Data set [4] in a line: Metabolic stability in rat plasma by LC/MS/MS analysis. In kind it is ADME, cell-free. The following applies: read-out: Stability.

Some results are limits rather than exact numbers.

Sequence of Dipeptidyl peptidase 4 (P27487 whole entry): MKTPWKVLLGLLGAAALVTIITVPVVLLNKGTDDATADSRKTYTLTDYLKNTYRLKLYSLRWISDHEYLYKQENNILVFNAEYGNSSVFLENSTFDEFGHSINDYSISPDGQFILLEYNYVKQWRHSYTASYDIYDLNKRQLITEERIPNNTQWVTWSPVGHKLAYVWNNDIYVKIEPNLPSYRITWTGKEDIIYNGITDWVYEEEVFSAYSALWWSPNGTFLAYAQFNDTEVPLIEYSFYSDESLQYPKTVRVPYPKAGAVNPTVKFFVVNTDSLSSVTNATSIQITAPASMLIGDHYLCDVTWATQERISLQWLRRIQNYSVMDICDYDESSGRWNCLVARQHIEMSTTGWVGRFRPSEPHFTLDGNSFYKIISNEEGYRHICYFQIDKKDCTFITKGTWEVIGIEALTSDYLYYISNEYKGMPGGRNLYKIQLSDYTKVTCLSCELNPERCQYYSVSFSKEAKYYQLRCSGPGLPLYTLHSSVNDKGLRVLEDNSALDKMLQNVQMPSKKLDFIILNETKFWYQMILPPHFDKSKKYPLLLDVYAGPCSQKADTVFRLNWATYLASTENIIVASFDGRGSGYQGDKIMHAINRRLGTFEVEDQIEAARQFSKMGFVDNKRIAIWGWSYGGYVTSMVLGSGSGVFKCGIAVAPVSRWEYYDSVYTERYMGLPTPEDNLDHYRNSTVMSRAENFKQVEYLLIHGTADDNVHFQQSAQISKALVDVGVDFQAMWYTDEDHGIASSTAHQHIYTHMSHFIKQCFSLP

As for `N#C[C@@H]1CCCN1C(=O)CNC(=O)c1ccnc2ccccc12`, the solubility kinetic at 2 h in data set [1] was greater than 200 µM. In addition, the concentration for half-maximal inhibition (IC50) (in data set [2]; against Dipeptidyl peptidase 4) was greater than 100 µM each time. This molecule yielded a Stability in data set [3] greater than 24 h. For the same molecule, the half-life in data set [4] was greater than 1440 min.

As usually defined, the IC50 is the point on the concentration scale where inhibition reaches its midpoint. Higher therefore signals lower potency.
